These results are taken from patent US20250136722A1, “CYTOTOXICITY TARGETING CHIMERAS” (GLAXOSMITHKLINE INTELLECTUAL PROPERTY DEVELOPMENT LIMITED, priority 2021, published 2025).

Molecules are shown by their SMILES. Values joined by “and” are separate entries in the source; they are usually repeats but may differ in a detail not shown here. Equal entries are not always repeated.

The test system of assay [1] is endogenous target monocytes in human PBMC. Put plainly: PBMC ex vivo monocyte depletion flow cytometry assay (Example 200). In kind it is cell-based. The following applies: with anti-cotinine antibody SEQ ID NO: 11/12, 18-24 hours, read-out: Ex Vivo Depletion Assay pEC50 (converted). On the procedure:
A human PBMC (peripheral blood mononuclear cells) monocyte depletion flow cytometry assay was developed to screen compounds in a 384-well plate format. This assay incorporated endogenous natural killer cells to deplete endogenous target monocytes.
To screen compounds in the human PBMC monocyte depletion flow cytometry assay, 11-point dose-response curves were made from 1 mM stocks in neat DMSO by serially diluting an ARM compound of Formula (I) four-fold into a 384-well plate row-wise. These serially diluted compounds were then stamped into a flat bottom polypropylene 384-well plate (Greiner Bio-One) at 100 nL/well. Fifty microliters of 30 μg/mL anti-cotinine antibody having a heavy chain sequence of SEQ ID NO: 11 and a light chain sequence of SEQ ID NO: 12 (rabbit variable region with human IgG1 Fc domain containing a DE mutation (S239D/1332E)) that had been diluted in assay medium (RPMI 1640 (Gibco) containing 10% fetal bovine serum (Gibco), 1% Glutamax (Gibco) and 1% sodium pyruvate (Corning) was added to the wells of the plate. The plate was centrifuged for 1 min at 500 rpm (revolutions per minute) and then shaken for 5 min at room temperature. The plate was incubated for 15 minutes at 37° C./5% CO2.
Frozen PBMC cells (HemaCare BioResearch) were thawed and centrifuged at 1,200 rpm for 4 minutes. The cells were diluted to a cell density of 2×10^6 cells/mL in assay medium. Fifty microliters of the diluted cells were added to the wells of the plate. The plate was centrifuged for 1 min at 500 rpm and incubated for 18-24 hours at 37° C./5% CO2.
After 18-24 hours incubation, 2 μL of 6.25 μg human FC block (BD Pharmingen) that was diluted in assay medium was added to the wells of the plate. The plate was centrifuged for 1 minute at 500 rpm and then incubated at room temperature for 15 minutes. Five microliters of 750 nM Helix NP NIR (Biolegend) that had been diluted in assay medium was added to the wells of the plate. Nine microliters of antibody cocktail containing 1/5 diluted fluorescein isothiocyanate (FITC) labeled anti-CD45 antibody (Beckman Coulter), PC7 labeled anti-CD14 antibody (Beckman Coulter) and phycoerythrin (PE) anti-CD4 antibody (Beckman Coulter) was then added to the wells of the plate. The plate was centrifuged for 1 min at 500 rpm and incubated for 30 minutes at 4-8° C. Samples from the plate were run on BD FACS Canto II flow cytometer and data was analyzed using FlowJo software.
ARMs compounds of Formula (I) of the invention were tested for the ability to deplete monocytes in the above assay in one or more experimental runs and the results are shown in Table 3 below. Potency of the compounds of the invention is reported as a pEC50 value. The pEC50 value is the negative log of the EC50 value, wherein the EC50 value is the half maximal effective concentration measured in molar (M). For compounds tested in more than one experimental run, the pEC50 value is reported as an average or as the individual values measured
On the technique in general: A flow cytometer gives signals particle by particle.

The test system of assay [2] is CCR2 expressing cells (CD11b+Ly6c+ Hi) in peripheral blood. Put plainly: In vivo depletion assay, flow cytometry of peripheral blood (Example 201). Details: species or system Human CCR2 (hCCR2) knock-in mice (C57 background). The following applies: hCCR2 knock-in mice; IV 0.1 mpk compound + 10 mpk anti-cotinine antibody (SEQ ID NO: 13/14); peripheral blood at 48 hr. On the procedure: Stock solution preparation: Stock solutions of compounds of Formula (I) were prepared at 20 mg/mL and 100 mg/mL in DMSO for PK/PD and dose tolerability studies respectively. Stock solutions were stored at −20° C. until further usage.
Formulations preparation: On the day of experiment, the stock solution of the compound of Formula (I) was removed from storage at −20° C. and thawed at room temperature. Anti-cotinine antibody having a heavy chain sequence of SEQ ID NO: 13 and a light chain sequence of SEQ ID NO: 14 (rabbit variable region sequence with mouse IgG2a Fc domain), if required was removed from storage at −80° C. and thawed at room temperature. Antibody vials were immediately transferred into wet ice after thawing. Compounds of Formula (I) were further diluted in DMSO as per experimental requirements.
Formulation composition: The formulation composition was Saline:DMSO:PBS. Saline was added based on the quantity required and then stock solution of the compound of Formula (I) prepared in DMSO, followed by addition of antibody in PBS. Formulations were incubated at room temperature for 30 minutes before administration to the mouse. DMSO was used at 1 to 2% (v/v) in the final formulation.
After bleeding, each mouse was sacrificed by cervical dislocation.
CCR2 depletion in peripheral blood was determined by flow cytometry. Briefly, peripheral blood was collected from all animals at the end of study termination and processed. Blood samples were lysed using 1× RBC Lysis buffer and the resulting cell pellet was washed twice in FACS buffer (HBSS containing 5% FBS). Cells were subjected to Fc blocking using mouse Fc block from Biolegend (Trustain, anti-mouse CD16/32, Cat: 101319) to block non-specific binding followed by surface staining for immune markers (CD45, CD3, CD11b, Ly6C, human CCR2). Surface staining was done for 30 minutes in ice and cells were washed twice to remove unbound antibodies. Cells were stained with 7AAD to determine viability and acquired on BD FACSVerse flow cytometer. Appropriate FMO controls and single-color controls were included in the experiment for gating and compensation respectively.
Percent depletion of CD11b+Ly6c+ Hi cells and CCR2 expression for the different treatment groups was determined.

Assay [3] has as its target human alpha1 nicotinic acetylcholine (nACh) receptor (Homo sapiens, UniProt P02708+Q07001). Put plainly: Nicotinic acetylcholine receptor antagonism assay, IONFlux automated patch clamp (Example 203). It counts as cell-based. Particulars: for Emax at 10 µM: maximum percentage antagonism at maximum concentration tested 10 μM, read-out: Maximum Response (%); for IC50: nAChR antagonism, ACh stimulated, patch clamp. In a few lines:
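Human α1 nAChR-expressing cells were preincubated with compound (top 10 μM or 100 μM), then stimulated with 10 mM ACh; peak currents were recorded by IONFlux automated patch clamp. Percent inhibition versus ACh-alone control was vehicle- and rundown-corrected, then fitted to give IC50, with maximal antagonism at the top concentration; recordings with control current <500 pA were excluded.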
A general note: The patch-clamp technique gives a direct electrical read-out from membranes.

Assay [4] addresses Anti-cotinine antibody (SEQ ID NO: 11 / SEQ ID NO: 12, rabbit variable region with human IgG1 Fc domain). Nature of the assay: Binding of anti-cotinine antibody to ARM compounds by SPR, Biacore T200, 37° C. (Example 202). Particulars: pH 7.4, rabbit variable region/human IgG1 Fc antibody captured on protein A. In a few lines:
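Antibody captured on protein A chip. Compounds injected (3-fold, 5-point, top 200 nM) at 100 μL/min with 200 s association and 2000 s dissociation, at 37° C. in HEPES pH 7.4 buffer with 1% DMSO. Double-referenced data fit to 1:1 kinetics. Kd = koff/kon, reported as pKd, averaged over runs.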

For assay [5], the target named is T1, CHOK1 cells engineered to overexpress human CCR2 (Homo sapiens, UniProt P41597).
T1 construct: expressed in transfected cells; host or cells: CHOK1 cells
Put plainly: Antibody dependent cellular cytotoxicity (ADCC) reporter assay (Example 199). It counts as cell-based. The following applies: with anti-cotinine antibody SEQ ID NO: 11/12, CHOK1-human CCR2 target cells, Jurkat FcγRIIIa NFAT-luciferase reporter cells, 12-18 hours. In a few lines:
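CHOK1-hCCR2 target cells are co-incubated for 12–18 h with Jurkat FcγRIIIa/NFAT-luciferase reporter cells, ARM compound (1 pM–10 μM) and anti-cotinine antibody with a DE-mutant human IgG1 Fc (0.01–200 μg/mL). Luminescence is expressed as signal:background against no-compound wells; EC50 comes from nonlinear fit and is reported as pEC50, averaged across runs.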
A general note: Reporter assays use an easily measured gene product as a stand-in for the process of interest.

Chain of human alpha1 nicotinic acetylcholine (nACh) receptor (P02708 21-457): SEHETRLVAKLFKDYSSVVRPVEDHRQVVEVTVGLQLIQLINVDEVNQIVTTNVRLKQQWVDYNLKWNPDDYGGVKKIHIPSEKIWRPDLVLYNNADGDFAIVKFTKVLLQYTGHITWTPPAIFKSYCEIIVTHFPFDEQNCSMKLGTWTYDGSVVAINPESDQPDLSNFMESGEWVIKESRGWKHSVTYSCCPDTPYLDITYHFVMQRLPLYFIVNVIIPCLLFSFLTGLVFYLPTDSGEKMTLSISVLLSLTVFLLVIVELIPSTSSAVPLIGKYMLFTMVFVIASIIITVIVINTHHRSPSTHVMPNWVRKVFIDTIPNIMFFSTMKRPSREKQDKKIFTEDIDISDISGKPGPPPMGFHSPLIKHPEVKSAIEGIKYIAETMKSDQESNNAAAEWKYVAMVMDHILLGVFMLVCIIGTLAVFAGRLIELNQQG
Chain of human alpha1 nicotinic acetylcholine (nACh) receptor (P11230 24-501 partner): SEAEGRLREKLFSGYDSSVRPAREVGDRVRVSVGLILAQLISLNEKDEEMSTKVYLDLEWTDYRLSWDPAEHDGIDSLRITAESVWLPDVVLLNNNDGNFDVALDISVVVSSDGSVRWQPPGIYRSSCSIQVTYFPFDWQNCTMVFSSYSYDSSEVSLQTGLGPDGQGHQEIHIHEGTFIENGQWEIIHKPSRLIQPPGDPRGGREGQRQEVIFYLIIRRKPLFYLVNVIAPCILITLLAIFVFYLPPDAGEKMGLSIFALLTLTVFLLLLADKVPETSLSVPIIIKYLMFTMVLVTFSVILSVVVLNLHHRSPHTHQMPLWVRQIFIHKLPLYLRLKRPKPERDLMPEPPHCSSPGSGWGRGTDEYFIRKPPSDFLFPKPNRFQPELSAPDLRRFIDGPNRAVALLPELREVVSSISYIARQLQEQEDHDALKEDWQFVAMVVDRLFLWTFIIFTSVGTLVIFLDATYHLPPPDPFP
Chain of human alpha1 nicotinic acetylcholine (nACh) receptor (Q07001 22-517): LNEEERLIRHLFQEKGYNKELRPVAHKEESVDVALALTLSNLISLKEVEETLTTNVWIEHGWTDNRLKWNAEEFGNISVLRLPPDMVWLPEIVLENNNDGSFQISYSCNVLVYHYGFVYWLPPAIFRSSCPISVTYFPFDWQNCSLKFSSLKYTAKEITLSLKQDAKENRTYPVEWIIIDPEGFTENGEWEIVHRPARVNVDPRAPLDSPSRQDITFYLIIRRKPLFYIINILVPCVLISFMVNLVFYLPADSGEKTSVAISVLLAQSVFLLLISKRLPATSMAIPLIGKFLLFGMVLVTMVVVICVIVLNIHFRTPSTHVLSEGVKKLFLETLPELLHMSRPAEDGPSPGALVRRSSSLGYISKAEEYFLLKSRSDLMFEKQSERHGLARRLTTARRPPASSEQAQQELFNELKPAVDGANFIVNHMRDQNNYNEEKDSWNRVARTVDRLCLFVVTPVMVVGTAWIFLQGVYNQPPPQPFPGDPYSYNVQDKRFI

As for `CC(C)N(C)[C@@H]1CC[C@H](N2CC[C@H](Nc3ncnc4ccc(C(F)(F)F)cc34)C2=O)[C@H](NC(=O)[C@H]2CC[C@@H](N3CCN(S(=O)(=O)C4CCN(C(=O)[C@H](C)NC(=O)[C@H]5CC(=O)N(C)[C@@H]5c5cccnc5)CC4)CC3)CC2)C1` [compound 71], the EC50 in assay [1] is 0.794 nM. The “% Depletion of CCR2 expressing cells” value in assay [2] was found to be 35.25%.
In general, IC50 refers to the concentration that inhibits the measured activity by half. For `CC(C)N(C)[C@@H]1CCC(N2CC[C@H](Nc3ncnc4ccc(C(F)(F)F)cc34)C2=O)[C@H](NC(=O)CCOCCOCCOCCOCCOCCNC(=O)[C@H]2CC(=O)N(C)[C@@H]2c2cccnc2)C1` (some centres unmarked) [Example 40], in assay [3], the Emax at 10 µM turned out to be 24.7% and the 50% inhibitory concentration (IC50) is over 10000 nM. The “pKd of Antibody for ARM Compound of Formula (I)” value (from here on “pKd of Antibody”) in assay [4] stood at 9.4525. Besides, the EC50 in assay [1] is 5.01 nM.
For `CC(C)N(C)[C@@H]1CCC(N2CC[C@H](Nc3ncnc4ccc(C(F)(F)F)cc34)C2=O)[C@H](NC(=O)CCOCCOCCOCCOCCOCCOCCNC(=O)[C@H]2CC(=O)N(C)[C@@H]2c2cccnc2)C1` (some centres unmarked) [Example 41] the same measures were 20.1%, over 10000 nM, 9.3615 and 2.51 nM.
On to `CC(C)N(C)[C@@H]1CC[C@H](N2CC[C@H](Nc3ncnc4ccc(C(F)(F)F)cc34)C2=O)[C@H](NC(=O)[C@H]2CC[C@H](N3CCN(S(=O)(=O)C4CCN(C(=O)[C@H](C)NC(=O)[C@H]5CC(=O)N(C)[C@@H]5c5cccnc5)CC4)CC3)CC2)C1` [Example 70, (2S,3S)-N-((S)-1-(4-((4-((1R,4S)-4-(((1R,2S,5R)-5-(isopropyl(methyl)amino)-2-((S)-2-oxo-3-((6-(trifluoromethyl)quinazolin-4-yl)amino)pyrrolidin-1-yl)cyclohexyl)carbamoyl)cyclohexyl)piperazin-1-yl)sulfonyl)piperidin-1-yl)-1-oxopropan-2-yl)-1-methyl-5-oxo-2-(pyridin-3-yl)pyrrolidine-3-carboxamide], for which the EC50 in assay [1] is 0.1 nM. Besides, the “% Depletion of CCR2 expressing cells” value in assay [2] is 30.51%.
For `CN1C(=O)C[C@H](C(=O)NCCCOCCCNC(=O)CCCC(=O)NC2CCC(C(=O)N[C@@H]3C[C@H](NC(C)(C)C)CC[C@@H]3N3CC[C@H](Nc4ncnc5ccc(C(F)(F)F)cc45)C3=O)CC2)[C@H]1c1cccnc1` (some centres unmarked) [Example 22], the “pKd of Antibody” value in assay [4] is on record as 9.2495. Besides, the EC50 in assay [1] was 0.631 nM. Besides, in assay [5], the “ADCC Reporter Assay pEC50” value was 9 and 9.3.
Turning to `CC(C)N(C)[C@@H]1CC[C@H](N2CC[C@H](Nc3ncnc4ccc(C(F)(F)F)cc34)C2=O)[C@H](NC(=O)C2CCN(C3CCN(C(=O)CCCCCCCNC(=O)[C@@H]4CC(=O)N(C)[C@H]4c4cccnc4)CC3)CC2)C1` [Example 154, N-((1R,2S,5R)-5-(Isopropyl(methyl)amino)-2-((S)-2-oxo-3-((6-(trifluoromethyl)quinazolin-4-yl)amino)pyrrolidin-1-yl)cyclohexyl)-1′-(8-((2R,3R)-1-methyl-5-oxo-2-(pyridin-3-yl)pyrrolidine-3-carboxamido)octanoyl)-[1,4′-bipiperidine]-4-carboxamide], the EC50 in assay [1] was 0.501 nM; in assay [5] (read-out: ADCC Reporter Assay pEC50 (converted)) it was 2.51 nM.
Turning to `CC(C)N(C)[C@@H]1CC[C@H](N2CC[C@H](Nc3ncnc4ccc(C(F)(F)F)cc34)C2=O)[C@H](NC2CCN(C(=O)CCOCCOCCOCCOCCNC(=O)[C@H]3CC(=O)N(C)[C@@H]3c3cccnc3)CC2)C1` [Example 69], the “pKd of Antibody” value in assay [4] stood at 9.321. The EC50 in assay [1] is 1.58 nM. In addition, the “% Depletion of CCR2 expressing cells” value in assay [2] came out at 98.59%.
